Measurements published in patent publication US20060069132A1, “Azolecarboxamide herbicides” (priority 2004, published 2006).

What was measured:
[1] = tested on: morningglory; experiment: Test B pre-/postemergence herbicide test; type: in vivo, Ipomoea coccinea
Outline: (§1)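 Evaluation is visual, comparing treated with control plants on a scale where 0 means no effect and 100 means full control. Treatments were preemergence, or postemergence on seedlings 2–18 cm tall, and held 13–15 days in the greenhouse.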

[2] = tested on: cocklebur; experiment: Test B pre-/postemergence herbicide test; type: in vivo, Xanthium strumarium
Outline: as §1

[3] = tested on: lambsquarters; experiment: Test B pre-/postemergence herbicide test; type: in vivo, Chenopodium album
Outline: (§2)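 Plants compared with untreated controls 13–15 days post-treatment and given a visual 0–100 injury score. Applications: preemergence to seeds; postemergence at 1- to 4-leaf (2–18 cm); paddy species flooded, 2-leaf stage. Vehicle non-phytotoxic, surfactant included.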

[4] = tested on: large crabgrass; experiment: Test B pre-/postemergence herbicide test; type: in vivo, Digitaria sanguinalis
Outline: as §2

[5] = tested on: blackgrass; experiment: Test B postemergence herbicide test; type: in vivo, Alopecurus myosuroides; settings: scale 0 (no effect) to 100 (complete control)
Outline: (§3)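 Each value is a visual 0–100 response rating taken against controls 13 to 15 days after treatment in the greenhouse. Plants received formulated chemical postemergence at the 1- to 4-leaf stage or, in flooded paddy, at the 2-leaf stage.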

[6] = tested on: Surinam grass; experiment: Test B pre-/postemergence herbicide test; type: in vivo, Urochloa decumbens
Outline: as §2

[7] = tested on: barnyardgrass; experiment: Test A pre-/postemergence herbicide test; type: in vivo, Echinochloa crus-galli
Outline: (§4)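 Pre: seeded sandy loam, directed soil spray, compound in non-phytotoxic solvent + surfactant. Post: 1–2-leaf plants (2–10 cm), sprayed to runoff. Greenhouse ~10 d; visual injury vs untreated, 0–100 scale.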

[8] = tested on: giant foxtail; experiment: Test A pre-/postemergence herbicide test; type: in vivo, Setaria faberi
Outline: as §4

[9] = tested on: barnyardgrass; experiment: Test B pre-/postemergence herbicide test; type: in vivo, Echinochloa crus-galli
Outline: as §1

[10] = tested on: redroot pigweed; experiment: Test A pre-/postemergence herbicide test; type: in vivo, Amaranthus retroflexus
Outline: as §4

[11] = tested on: morningglory; experiment: Test A pre-/postemergence herbicide test; type: in vivo, Ipomoea spp.
Outline: as §4

[12] = tested on: pigweed; experiment: Test B pre-/postemergence herbicide test; type: in vivo, Amaranthus retroflexus
Outline: as §2

[13] = tested on: wild oat; experiment: Test B postemergence herbicide test; type: in vivo, Avena fatua; settings: scale 0 (no effect) to 100 (complete control)
Outline: (§5)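 Scale 0–100: zero equals no visible effect, 100 complete control, judged by eye relative to controls. Timing: 13 to 15 days in greenhouse post-treatment. Growth stage at spraying: two leaves (paddy) or one to four leaves, 2–18 cm (postemergence).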

[14] = tested on: wheat; experiment: Test B postemergence herbicide test; type: in vivo, Triticum aestivum; parameters: key to Wheat plant response rating: 0 = no effect, 100 = complete control; settings: scale 0 (no effect) to 100 (complete control)
Outline: as §5

[15] = tested on: giant foxtail; experiment: Test B pre-/postemergence herbicide test; type: in vivo, Setaria faberi
Outline: as §2

[16] = tested on: ducksalad; experiment: Test B flooded paddy test; type: in vivo, Heteranthera limosa; settings: 1000 g ai/ha, visual rating, scale 0 to 100 (0 no effect, 100 complete control), 13 to 15 days
Outline: as §3

[17] = tested on: velvetleaf; experiment: Test A pre-/postemergence herbicide test; type: in vivo, Abutilon theophrasti
Outline: as §4

[18] = tested on: small flower umbrella sedge; experiment: Test B flooded paddy test; type: in vivo, Cyperus difformis; settings: 1000 g ai/ha, visual rating, scale 0 to 100 (0 no effect, 100 complete control), 13 to 15 days
Outline: as §3

[19] = tested on: rice; experiment: Test B flooded paddy test; type: in vivo, Oryza sativa; settings: 1000 g ai/ha, visual rating, scale 0 to 100 (0 no effect, 100 complete control), 13 to 15 days
Outline: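 Formulated test chemicals went onto postemergence plants measuring 2 to 18 cm, at one to four leaves. For the paddy assay, species had reached two leaves. Scoring took place 13–15 days later by eye, relative to untreated plants, using 0 for no effect up to 100 for full control.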

[20] = tested on: barnyardgrass; experiment: Test B flooded paddy test; type: in vivo, Echinochloa crus-galli; settings: 1000 g ai/ha, visual rating, scale 0 to 100 (0 no effect, 100 complete control), 13 to 15 days
Outline: as §3

[21] = tested on: rice; experiment: Test B pre-/postemergence herbicide test; type: in vivo, Oryza sativa; settings: preemergence
Outline: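 Greenhouse pot assay with simultaneous preemergence (treated seed) and postemergence (2–18 cm seedlings) applications of surfactant-containing, non-phytotoxic solvent formulations. Response scored visually 13–15 days later on a 0–100 scale, 100 meaning complete control.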

[22] = tested on: large crabgrass; experiment: Test A pre-/postemergence herbicide test; type: in vivo, Digitaria sanguinalis
Outline: as §4

[23] = tested on: velvetleaf; experiment: Test B pre-/postemergence herbicide test; type: in vivo, Abutilon theophrasti
Outline: as §2

[24] = tested on: corn; experiment: Test B pre-/postemergence herbicide test; type: in vivo, Zea mays
Outline: as §2

[25] = 500 g ai/ha, visual rating 0-100, 0 no effect, 100 complete control, preemergence
[26] = Postemergence, 500 g ai/ha, visual rating after 13 to 15 days, scale 0 (no effect) to 100 (complete control)
[27] = postemergence, 125 g ai/ha, visual rating, scale 0 (no effect) to 100 (complete control)
[28] = preemergence, 125 g ai/ha, 0 to 100 scale, 0 is no effect, 100 is complete control
[29] = Postemergence, 500 g ai/ha, visual rating after 13 to 15 days
[30] = postemergence, 125 g ai/ha, visual rating
[31] = Postemergence, 500 g ai/ha, 0 to 100 scale, 0 no effect, 100 complete control
[32] = Postemergence, 2000 g ai/ha, 0 to 100 scale, 0 no effect, 100 complete control
[33] = Preemergence, 500 g ai/ha, visual rating, 0 to 100 scale (0 no effect, 100 complete control)
[34] = Preemergence, 2000 g ai/ha, visual rating, 0 to 100 scale (0 no effect, 100 complete control)

CCOC(=O)c1cccc(NC(=O)c2cc(C(C)(C)C)nn2CC)c1OC [Compound 97]
Plant response rating, Morningglory [1, 25]: 0
Plant response rating, Morningglory [1, 26]: 0
Morningglory plant response rating [1, 27]: 0
Plant response rating, Morningglory [1, 28]: 0
Plant response rating, Cocklebur [2, 25]: 0
Plant response rating, Cocklebur [2, 26]: 70
Cocklebur plant response rating [2, 27]: 0
Plant response rating, Cocklebur [2, 28]: 0
Plant response rating, Lambsquarters [3, 25]: 0
Plant response rating, Lambsquarters [3, 26]: 70
Lambsquarters plant response rating [3, 27]: 50
Plant response rating, Lambsquarters [3, 28]: 0
Plant response rating, Crabgrass, Large [4, 25]: 0
Plant response rating, Crabgrass, Large [4, 26]: 0
Crabgrass, Large plant response rating [4, 27]: 0
Plant response rating, Crabgrass, Large [4, 28]: 0
Plant response rating, Blackgrass [5, 29]: 0
Blackgrass plant response rating [5, 30]: 0
Plant response rating, Surinam Grass [6, 25]: 0
Plant response rating, Surinam Grass [6, 26]: 0
Surinam Grass plant response rating [6, 27]: 0
Plant response rating, Surinam Grass [6, 28]: 0
Barnyardgrass plant response rating [7, 31]: 5
Plant response rating, Barnyardgrass [7, 32]: 10
Barnyardgrass plant response rating [7, 33]: 0
Barnyardgrass plant response rating [7, 34]: 0
Foxtail, Giant plant response rating [8, 31]: 5
Plant response rating, Foxtail, Giant [8, 32]: 10
Foxtail, Giant plant response rating [8, 33]: 0
Foxtail, Giant plant response rating [8, 34]: 0
Plant response rating, Barnyardgrass [9, 25]: 0
Plant response rating, Barnyardgrass [9, 26]: 0
Barnyardgrass plant response rating [9, 27]: 0
Plant response rating, Barnyardgrass [9, 28]: 0
Pigweed plant response rating [10, 31]: 0
Plant response rating, Pigweed [10, 32]: 25
Pigweed plant response rating [10, 33]: 0
Pigweed plant response rating [10, 34]: 0
Morningglory plant response rating [11, 31]: 0
Plant response rating, Morningglory [11, 32]: 0
Morningglory plant response rating [11, 33]: 0
Morningglory plant response rating [11, 34]: 0
Plant response rating, Pigweed [12, 25]: 0
Plant response rating, Pigweed [12, 26]: 0
Pigweed plant response rating [12, 27]: 0
Plant response rating, Pigweed [12, 28]: 0
Plant response rating, Oat, Wild [13, 29]: 0
Oat, Wild plant response rating [13, 30]: 0
Plant response rating, Wheat [14, 29]: 0
Wheat plant response rating [14, 30]: 0
Plant response rating, Foxtail, Giant [15, 25]: 0
Plant response rating, Foxtail, Giant [15, 26]: 0
Foxtail, Giant plant response rating [15, 27]: 0
Plant response rating, Foxtail, Giant [15, 28]: 0
Ducksalad plant response rating [16]: 50
Velvetleaf plant response rating [17, 31]: 5
Plant response rating, Velvetleaf [17, 32]: 10
Velvetleaf plant response rating [17, 33]: 0
Velvetleaf plant response rating [17, 34]: 0
Sedge, Umbrella plant response rating [18]: 70
Rice plant response rating [19]: 0
Barnyardgrass plant response rating [20]: 0
Plant response rating, Rice ([21]; 500 g ai/ha, visual rating 0-100, 0 no effect, 100 complete control): 0
Plant response rating, Rice ([21]; 125 g ai/ha, 0 to 100 scale, 0 is no effect, 100 is complete control): 0
Crabgrass, Large plant response rating [22, 31]: 10
Plant response rating, Crabgrass, Large [22, 32]: 10
Crabgrass, Large plant response rating [22, 33]: 0
Crabgrass, Large plant response rating [22, 34]: 0
Plant response rating, Velvetleaf [23, 25]: 0
Plant response rating, Velvetleaf [23, 26]: 60
Velvetleaf plant response rating [23, 27]: 0
Plant response rating, Velvetleaf [23, 28]: 0
Plant response rating, Corn [24, 25]: 0
Plant response rating, Corn [24, 26]: 0
Corn plant response rating [24, 27]: 0
Plant response rating, Corn [24, 28]: 0
